# Experimental data from the OPERA property sets (Mansouri et al. 2018).
# Where a SMILES comes first, the peptide text is derived from it.
row,SMILES,logP
1,CCCc1nc(NCC)nc(N2CCCCC2)n1,3.34
2,CCCCNCc1ccc(C)cc1,3.49
3,CCOC(=O)C(C)c1ccc2cc(OC)ccc2c1 (configuration not stated),3.51
4,COc1ccc(Nc2nc(O)nc(NC(C)C)n2)cc1OC,3.49
5,Nc1nc(Cl)nc2c1ncn2[C@H]1C[C@H](O)[C@@H](CO)O1,0.02
6,COC(=O)C(C)NP(=O)(OCC1C=CC(n2cc(C)c(=O)[nH]c2=O)O1)Oc1ccc(Br)cc1 (configuration not stated),1.6
7,CNc1nc(NC)nc(NC(C)C)n1,1.87
8,CC(C)C(N)C(=O)NCC(=O)NC(Cc1ccccc1)C(=O)NC(C(=O)NC(Cc1ccccc1)C(=O)O)C(C)C (configuration not stated) (H-VGFVF-OH; configuration not given here),-0.5
9,O=[N+]([O-])c1ccc(CSc2ncnc3c2ncn3C2OC(CO)C(O)C2O)cc1 (configuration not stated),0.54
10,S=C=NCCCCc1ccccc1,4
11,COC(=O)NC(=O)Cn1c(C)nc2ccccc2c1=O,0.4
12,Cc1cc(=O)[nH]nc1/C=C/c1ccc(-n2ccnc2)cc1,1.71
13,NC1=NCC(COc2ccccc2[N+](=O)[O-])O1 (configuration not stated),0.8
14,C=CC(=O)OCCOCCO,-0.3
15,CCC(C)C(NC(=O)C(NC(=O)C(N)CC(C)C)C(C)O)C(=O)O (stereo not drawn) (H-Leu-Thr-Ile-OH; configuration not given here),-2.3
16,CCNc1ncnc2c1ncn2C1OC(CO)C(O)C1O (configuration not stated),0.01
17,NC(=O)C1CN(CC(=O)Nc2c(Cl)cccc2Cl)CCN1CCCC(c1ccc(F)cc1)c1ccc(F)cc1 (configuration not stated),5.26
18,Cc1cc2ccc(=O)oc2c2ccoc12,2.39
19,CNS(=O)(=O)c1nnc(NC(C)=O)s1,0.49
20,c1ccc(CCCCNc2[nH]cnc3ncnc2-3)cc1,3.29
21,CC(C)(C)NC(=O)[C@@H]1C[C@@H]2CCCC[C@@H]2CN1C[C@@H](O)[C@H](Cc1ccccc1)NC(=O)[C@H](CC(N)=O)NC(=O)c1ccc2ccccc2n1,4.7
22,Cc1nn(-c2cc(CC(Cl)C(=O)O)c(Cl)cc2F)c(=O)n1C(F)F (configuration not stated),3.36
23,Cc1cc(=O)oc2c1ccc1occ(C)c12,3.08
24,CC(C)(C)[N+]([O-])=Cc1ccc(C(=O)O)cc1,1.1

row,SMILES,logP
1,COc1ccc(-n2nnnc2N)cc1,0.85
2,OCCN1CCN(CCCOn2nnc3ccccc32)CC1,0.43
3,COc1ccc(CCNCC(O)COc2ccc(-c3nc(C)c(Br)[nH]3)cc2)cc1OC (configuration not stated),3.9
4,O=C1C=C(N2CCCCC2)C(=O)N1c1ccc(Cl)cc1,3.4
5,CN(C)CCc1ccccc1,2.38
6,CCC(C)C(N)C(=O)NC(C)C(=O)NC(Cc1ccc(O)cc1)C(=O)NC(Cc1c[nH]c2ccccc12)C(=O)NCC(=O)O (configuration not stated) (H-IAYWG-OH; configuration not given here),-1.47
7,COc1ccc(CCNCC(O)COc2ccc(CCc3nc(Br)c[nH]3)cc2)cc1OC (configuration not stated),3
8,CCOC(=O)C1=C(C)NC(C)=C(C(=O)OC)C1c1cc(OC)c(O)c(OC)c1 (configuration not stated),2.83
9,O=C1N=C(N2CCOCC2)CN1Cc1ccc(I)cc1,1.7
10,COc1coc(CSC(=S)N(C)C)cc1=O,1.14
11,COC(=O)C(C)NP(=O)(OCC1C=CC(n2cc(C)c(=O)[nH]c2=O)O1)Oc1ccc(I)cc1 (configuration not stated),1.93
12,CCCCCC(O)C=CC1C(O)CC(O)C1CC=CCCCC(=O)OC (configuration not stated),3.07
13,CCNC(=S)NS(=O)(=O)c1cnccc1NC1CCCCC1,3.1
14,c1ccc(Cn2cnc3ccccc32)cc1,2.91
15,CC(C)C(NC(=O)C(N)Cc1ccccc1)C(=O)NC(Cc1ccc(O)cc1)C(=O)NC(Cc1ccccc1)C(=O)O (configuration not stated) (H-FVYF-OH; configuration not given here),-0.32
16,CC(=O)OCC1OC(n2ccc(=O)[nH]c2=O)C(OC(C)=O)C1OC(C)=O (configuration not stated),-0.36
17,O=C(O)CCCCCON=C(c1ccnnc1)c1cccc(C(F)(F)F)c1,3.38
18,NC(Cc1ccccc1)C(=O)NC(Cc1ccc(O)cc1)C(=O)O (stereo not drawn) (H-Phe-Tyr-OH; configuration not given here),-1.68
19,OCc1cnc(O)nc1O,-1.94
20,COc1ccc(C2CC(=O)N(CCN(C)C)c3cccc(C(F)(F)F)c3C2)cc1 (configuration not stated),5.1
21,c1ccc(CN2CCN(CCn3nc4ccccc4n3)CC2)cc1,3.3
22,CCCN(CCC)C1CCc2c(O)cccc2C1 (configuration not stated),3.58
23,CCOC(=O)c1c(O)c2ccc(Cl)cc2[nH]c1=O,2.6
24,CN1CC(O)N(C(=O)Nc2ccccc2)C1=O (configuration not stated),1.44

row,SMILES,logP
1,CSC(=S)N1CCCCC1,1.7
2,COCc1ccc(CC#N)cc1,1.23
3,Brc1c2ccccc2cc2ccccc12,5.37
4,CCc1cccc(COC(=O)C2C(C=C(C)C(=O)OC)C2(C)C)c1 (configuration not stated),5.42
5,O=c1ccc(/C=C/c2ccc(-n3cnc4c3CCCC4)cc2)n[nH]1,2.47
6,O=C(NO)C(Cc1ccccc1)C(=O)NCc1ccc(F)cc1 (configuration not stated),1.8
7,NC1CC(CO)N(c2cc3c(cc2F)c(=O)c(C(=O)O)cn3-c2ccc(F)cc2F)C1 (configuration not stated),-0.98
8,CCCCc1cnc(C2=NC(C)(C(C)C)C(=O)N2)c(C(=O)O)c1 (configuration not stated),1.99
9,O=C(Nc1ccccc1C(=O)O)c1ccccc1O,3.94
10,CCCCC(O)C(CCCCOc1cccc(C)c1)n1cncn1 (configuration not stated),3.6
11,CC1(C)C=[N+]([O-])C(C)(C)C1,-0.15
12,O=C(O)C(Cc1ccccc1)NC(=O)C1CCCN1 (stereo not drawn) (H-Pro-Phe-OH; configuration not given here),-2.07
13,O=C(NC1CCCCCCC1)NS(=O)(=O)c1cnccc1NC1CCCCC1,4.97
14,COc1cc(S(C)=O)ccc1-c1cn2cc(N)cnc2n1 (configuration not stated),0.37
15,O=c1cc(-c2c(Cl)cccc2Cl)oc2ccccc12,3.79
16,NC(Cc1ccccc1)C(=O)NC(Cc1ccccc1)C(=O)NCC(=O)NC(Cc1ccccc1)C(=O)O (configuration not stated) (H-FFGF-OH; configuration not given here),0.17
17,Cn1c(=O)[nH]c2ncn(C)c2c1=O,-0.22
18,COCCNC(=O)c1c(C)nc2c3c(c(C(=O)N(C)C)cn12)CCC(c1ccccc1)O3 (configuration not stated),2.15
19,CCOc1cc2ncnc(Nc3ccc(F)cc3)c2cc1OCC,3.73
20,CCCN(CCCCC(NC(C)=O)C(=O)NCc1ccccc1)C(=O)NCCCl (configuration not stated),1.13
21,COc1cc(Cl)ccc1O,2.15
22,O=C1N=C(N2CCCCC2)CN1c1ccc(Cl)cc1,2.3
23,CC1CCCCN1CC1CN=C(N)O1 (configuration not stated),0.73
24,O=C(Cn1cnc([N+](=O)[O-])n1)NCCCO,-1.27

row,SMILES,logP
1,CCCCCCC(=O)Oc1ccc2c3c1OC1C(OS(=O)(=O)O)C=CC4C(C2)N(C)CCC341 (configuration not stated),0.36
2,CC[C@H](C)C(=O)O[C@H]1C[C@H](O)C=C2C=C[C@H](C)[C@H](CC[C@@H](O)C[C@@H](O)CC(=O)O)[C@H]21,2.18
3,O=C1C=C(N2CCOCC2)C(=O)N1c1ccc(Cl)cc1,2.3
4,COc1ccc2c(c1)CCN(C)C2,2.32
5,CCCNC(=O)CNC(=O)C=[N+]=[N-],-0.24
6,CCC(C)C(N)C(=O)N1CCCC1C(=O)NCC(=O)NC(C(=O)O)C(C)CC (configuration not stated) (H-IPGI-OH; configuration not given here),-1.69
7,CCCN(CCC)C1CCc2c(cccc2OC)C1 (configuration not stated),4.24
8,COC(=O)Sc1ncc(C=C(C(=O)OC)C(=O)OC)n1C,0.49
9,O=C1CCC(c2ccc(-n3ccnc3)cc2)=NN1,0.96
10,N#CC(C#N)=NNc1cccc(Cl)c1Cl,3.85
11,OC(CNCC1COc2ccccc2O1)CON=C(C1CC1)C1CC1 (configuration not stated),2.22
12,CCOP(=O)(OCC)C(C)(C)[N+]([O-])=Cc1ccc(Cl)cc1,2.29
13,COc1ccc2c(c1)C(=O)N(CCO[N+](=O)[O-])CO2,2.07
14,CCCCCCCOC(C)=O,3.46
15,CCCCCCCNc1ncnc2nc[nH]c12,3.71
16,Cc1c(C(=O)O)cccc1[N+](=O)[O-],2.16
17,CN(c1nc2ccccc2s1)C1CCN(CC(O)COc2ccc(F)cc2)CC1 (configuration not stated),4.61
18,CC(=O)NC(CCCCNC(=O)N(CCCl)N=O)C(=O)NCc1ccccc1 (configuration not stated),1.54
19,COC(=O)c1c(Oc2nc(OC)cc(OC)n2)cccc1C(C)=NOCC=C(Cl)Cl,4.23
20,Nc1nnnn1-c1cccc2ccccc12,1.72
21,Cc1coc2cc3oc(=O)ccc3c(C)c12,2.79
22,CCN(C(C)=O)c1cccc(-c2ccnc3c(C#N)cnn23)c1,1.23
23,Cc1sc2ccc3c(C)cc(=O)oc3c2c1C,3.65
24,O=C(O)CCCCON=C(c1ccccc1)c1ncccn1,1.94

row,SMILES,logP
1,COc1nc(C)nc(Cl)c1NC1=NCCN1,0.9
2,COC1CC(OC2C(O)CC(OC3CCC4(C)C(CCC5C4CCC4(C)C(C6=CC(=O)OC6)CCC54O)C3)OC2C)OC(C)C1OC1CC(O)C(O)C(C)O1 (configuration not stated),3.11
3,NC1=NCC(CN2CCOCC2)O1 (configuration not stated),-0.22
4,C[C@]12CCC(=O)C=C1[C@@H]1C[C@@H]1[C@@H]1[C@@H]2CC[C@@]2(C)[C@H]1CC[C@@]21CCC(=O)O1,3.08
5,CCCCCC(=O)c1ccncc1,2.9
6,CCN(CC)c1ccc(-n2c(C(F)(F)F)nn(C)c2=S)cc1,3.79
7,CCOC(=O)C(C)(Cc1cccc2ccccc12)S(=O)(=O)c1ccc([N+](=O)[O-])cc1 (configuration not stated),4.4
8,COc1ccccc1-n1nnnc1N,0.56
9,C=CCN(N=O)C(=O)N(CCCC(NC(C)=O)C(=O)NCc1ccccc1)Cc1ccccc1 (configuration not stated),2.16
10,Cc1c2ccoc2cc2oc(=O)ccc12,2.33
11,Cc1ccccc1Nc1ccncc1S(=O)(=O)NC(=O)NC(C)C,3.91
12,O=C1c2cc(O)ccc2OCN1CCO[N+](=O)[O-],1.63
13,CCCCNC(=N)NC(=O)c1ccc(Cl)cc1,3.08
14,CC(C)c1cccc(C(C)C)c1NC(=O)CC(=O)C1(c2ccccc2)CCCC1,4.55
15,CC(C)CC(NC(=O)C(N)Cc1ccc(O)cc1)C(=O)O (stereo not drawn) (H-Tyr-Leu-OH; configuration not given here),-1.75
16,CCOc1cc2ncnc(Nc3ccccc3F)c2cc1OCC,3.02
17,CC(=O)OC1CC(OC2C(O)CC(OC3C(O)CC(OC4CCC5(C)C(CCC6C5CC(O)C5(C)C(C7=CC(=O)OC7)CCC65O)C4)OC3C)OC2C)OC(C)C1OC(C)=O (configuration not stated),2.59
18,Clc1ccc(-c2c[nH]cc2N2CCOCC2)cc1,3.2
19,CC(C)CC(NC(=O)C(NC(=O)C1CCCN1C(=O)C(N)C(C)C)C(C)C)C(=O)O (configuration not stated) (H-VPVL-OH; configuration not given here),-1.91
20,Cc1cc2cc3ccc(=O)oc3c(C)c2o1,2.93
21,CCOC(=O)OC(C)C1=CCSC2C(NC(=O)C(=NOC)c3csc(N)n3)C(=O)N12 (configuration not stated),0.96
